Laboratory results as given in ChEMBL document CHEMBL3792312, “Synthesis and docking studies of pyrazine-thiazolidinone hybrid scaffold targeting dormant tuberculosis” (Bioorg Med Chem Lett, 2016).
Values after ≈ are worked out from the molar mass of the structure shown.

Legend:
[1] = system: Mycobacterium tuberculosis; assay: Antitubercular activity against dormant Mycobacterium tuberculosis H37Ra at 10 ug after 12 days by XTT-Menadione assay; format: functional
Pseudomonas fluorescens [2] = assay: Antibacterial activity against Pseudomonas fluorescens at 10 ug after 8 hrs; format: functional
Pseudomonas fluorescens [3] = assay: Antibacterial activity against Pseudomonas fluorescens at 3 ug after 8 hrs; format: functional
Staphylococcus aureus [4] = assay: Antibacterial activity against Staphylococcus aureus at 3 ug after 12 hrs; format: functional
Pseudomonas fluorescens [5] = assay: Antibacterial activity against Pseudomonas fluorescens at 30 ug after 8 hrs; format: functional
Escherichia coli [6] = assay: Antibacterial activity against Escherichia coli at 30 ug after 8 hrs; format: functional
[7] = system: Mycolicibacterium smegmatis; assay: Antitubercular activity against dormant Mycobacterium smegmatis MC2 155 at 10 ug after 12 days by XTT-Menadione assay; format: functional, str. MC2 155
[8] = system: Mycolicibacterium smegmatis; assay: Antitubercular activity against dormant Mycobacterium smegmatis MC2 155 at 30 ug after 12 days by XTT-Menadione assay; format: functional, str. MC2 155
Escherichia coli [9] = assay: Antibacterial activity against Escherichia coli at 10 ug after 8 hrs; format: functional
[10] = Cytotoxicity against human PANC1 cells after 5 days by MTT assay; format: cell-based, PANC-1; conditions: for IC50: Homo sapiens, PANC-1, 120 h; for MCC at 120 h: human, PANC1 cells, read-out: MIC
Bacillus subtilis [11] = assay: Antibacterial activity against Bacillus subtilis at 30 ug after 12 hrs; format: functional
Bacillus subtilis [12] = assay: Antibacterial activity against Bacillus subtilis at 3 ug after 12 hrs; format: functional
Bacillus subtilis [13] = assay: Antibacterial activity against Bacillus subtilis at 10 ug after 12 hrs; format: functional
[14] = system: Mycolicibacterium smegmatis; assay: Antitubercular activity against dormant Mycobacterium smegmatis MC2 155 at 3 ug after 12 days by XTT-Menadione assay; format: functional, str. MC2 155
A549 = assay: (§1) Cytotoxicity against human A549 cells after 3 days by MTT assay; format: cell-based; conditions: Homo sapiens, A549, 72 h
[15] = as §1; format: cell-based; conditions: human, A549 cells; read-out: MIC
Staphylococcus aureus [16] = assay: Antibacterial activity against Staphylococcus aureus at 10 ug after 12 hrs; format: functional
[17] = system: Mycobacterium tuberculosis; assay: Antitubercular activity against dormant Mycobacterium tuberculosis H37Ra after 12 days by XTT-Menadione assay; format: functional, organism-based; conditions: 288 h
Escherichia coli [18] = assay: Antibacterial activity against Escherichia coli at 3 ug after 8 hrs; format: functional
[19] = system: Mycobacterium tuberculosis; assay: Antitubercular activity against dormant Mycobacterium tuberculosis H37Ra at 3 ug after 12 days by XTT-Menadione assay; format: functional
Staphylococcus aureus [20] = assay: Antibacterial activity against Staphylococcus aureus at 30 ug after 12 hrs; format: functional
[21] = system: Mycobacterium tuberculosis; assay: Antitubercular activity against dormant Mycobacterium tuberculosis H37Ra at 30 ug after 12 days by XTT-Menadione assay; format: functional
MCF7 = assay: (§2) Cytotoxicity against human MCF7 cells after 4 days by MTT assay; format: cell-based; conditions: Homo sapiens, MCF7, 96 h
[22] = as §2; format: cell-based; conditions: human, MCF7 cells; read-out: MIC
[23] = Cytotoxicity against human THP1 cells after 5 days by MTT assay; format: cell-based, THP-1; conditions: for IC50: Homo sapiens, THP-1, 120 h; for MCC at 120 h: human, THP1 cells, read-out: MIC

SMILES	inhibition (INH) [1] [%]	inhibition (INH) (Pseudomonas fluorescens [2]) [%]	inhibition (INH) (Pseudomonas fluorescens [3]) [%]	inhibition (INH) (Staphylococcus aureus [4]) [%]	inhibition (INH) (Pseudomonas fluorescens [5]) [%]	inhibition (INH) (Escherichia coli [6]) [%]	inhibition (INH) [7] [%]	inhibition (INH) [8] [%]	inhibition (INH) (Escherichia coli [9]) [%]	IC50 [10] [µg/mL]	MCC at 120 h [10] [µg/mL]	inhibition (INH) (Bacillus subtilis [11]) [%]	inhibition (INH) (Bacillus subtilis [12]) [%]	inhibition (INH) (Bacillus subtilis [13]) [%]	inhibition (INH) [14] [%]	inhibition (INH) (Staphylococcus aureus [16]) [%]	inhibition (INH) (Escherichia coli [18]) [%]	inhibition (INH) [19] [%]	inhibition (INH) (Staphylococcus aureus [20]) [%]	inhibition (INH) [21] [%]	also measured
Cc1cnc(C(=O)NN2C(=O)CS[C@H]2c2ccc(N(C)C)cc2)cn1	65.91	29.04	12.03	34.87	21.18	46.74	9.803	23.39	28.08	> 100	> 100	3.26	5.9	2.71	-19.7482	27.85	35.59	60.23	22.9	91.72	IC50 (A549): > 100 µg/mL; MCC at 72 h [15]: > 100 µg/mL; IC50 [17]: 2.31 µg/mL (≈ 6.46 µM); MIC [17]: 28.4 µg/mL (≈ 79.5 µM); IC50 (MCF7): > 100 µg/mL; MCC at 96 h [22]: > 100 µg/mL; IC50 [23]: > 100 µg/mL; MCC at 120 h [23]: > 100 µg/mL
O=C(NN1C(=O)CS[C@@H]1c1ccc([N+](=O)[O-])cc1)c1cnccn1	66.45	13.35	6.405	21.93	-21.38	9	-31.0588	9.803	14.12	> 100	> 100	8.09	16.03	-4.94	36.09	-1.75	-6.69	60.59	-24.9	90.93	IC50 (A549): > 100 µg/mL; MCC at 72 h [15]: > 100 µg/mL; IC50 [17]: 1.47 µg/mL (≈ 4.25 µM); MIC [17]: 29 µg/mL (≈ 84 µM); IC50 (MCF7): 65.6 µg/mL (≈ 190 µM); MCC at 96 h [22]: > 100 µg/mL; IC50 [23]: 97.7 µg/mL (≈ 283 µM); MCC at 120 h [23]: > 100 µg/mL
Nc1nccnc1C(=O)NN1C(=O)CSC1c1ccccc1 (stereo unspecified)	71.09	3.29	25.98	-20.13	30.72	8.78	52.56	-60.9565	-71.2	> 100	> 100	19.82	-4.3	-6.1	43.05	32.35	-94.8	70.02	-1.45	91.57	IC50 (A549): 77 µg/mL (≈ 244 µM); MCC at 72 h [15]: > 100 µg/mL; IC50 [17]: 0.909 µg/mL (≈ 2.88 µM); MIC [17]: 28 µg/mL (≈ 88.9 µM); IC50 (MCF7): 81.3 µg/mL (≈ 258 µM); MCC at 96 h [22]: > 100 µg/mL; IC50 [23]: 89.6 µg/mL (≈ 284 µM); MCC at 120 h [23]: > 100 µg/mL
COc1ccc(C2SCC(=O)N2NC(=O)c2cnc(C)cn2)cc1OC (stereo unspecified)	72.12	28.51	-2.69	48.7	-5.41	-11.14	46.67	9.358	-59.8	–	–	14.25	13.25	18.53	8.925	-14.6	-46.22	68.91	2.4	73.51	–
Nc1nccnc1C(=O)NN1C(=O)CSC1c1ccc(O)cc1 (stereo unspecified)	69.84	16.61	30.55	25.87	43.72	15.24	27.68	13.22	14.06	–	–	4.31	13.88	16.8	36.11	40.89	56.462	65.54	43.79	70.73	–
Nc1nccnc1C(=O)NN1C(=O)CSC1c1cccc([N+](=O)[O-])c1 (stereo unspecified)	62.55	25.83	4.173	5.486	47.95	34.42	-86.9278	50.45	5.212	–	–	17.93	-23.1	-12.6	36.91	-44.93	-91.9	63.89	-37.97	64.96	–
Cc1cnc(C(=O)NN2C(=O)CSC2c2ccccc2)cn1 (stereo unspecified)	66.69	33.57	19.67	-39.23	35.1	42.85	24.96	61.3106	56.76	–	–	-9.36	17.71	16.03	34.46	41.07	60.45	55.04	39.81	68.38	–
